Laboratory results taken from paper PMC10361207, “Cannabinoid and Opioid Receptor Affinity and Modulation of Cancer-Related Signaling Pathways of Machaeriols and Machaeridiols from Machaerium Pers” (Molecules, 2023).
Read-outs that look alike come from different tables or passages of the source.

Experiments:
Stat3 [1] = system: Stat3; parameters: method as in PMID 36235141; conditions: T98G glioblastoma multiforme cells; inducer IL6; cited from earlier work
Smad2/3 [2] = system: Smad2/3; parameters: method as in PMID 36235141; conditions: T98G glioblastoma multiforme cells; inducer TGF-beta; cited from earlier work
Hedgehog [3] = system: Hedgehog; parameters: method as in PMID 36235141; conditions: T98G glioblastoma multiforme cells; inducer PMA; cited from earlier work
Myc [4] = system: Myc; parameters: method as in PMID 36235141; conditions: T98G glioblastoma multiforme cells; inducer PMA; cited from earlier work
AP-1 [5] = system: AP-1; parameters: method as in PMID 36235141; conditions: T98G glioblastoma multiforme cells; inducer PMA; cited from earlier work
NF-κB [6] = system: NF-κB; parameters: method as in PMID 36235141; conditions: T98G glioblastoma multiforme cells; inducer PMA; cited from earlier work
ETS [7] = system: ETS; parameters: method as in PMID 36235141; conditions: T98G glioblastoma multiforme cells; inducer PMA; cited from earlier work
E2F [8] = system: E2F; parameters: method as in PMID 36235141; conditions: T98G glioblastoma multiforme cells; inducer PMA; cited from earlier work
Notch [9] = system: Notch; parameters: method as in PMID 36235141; conditions: T98G glioblastoma multiforme cells; inducer PMA; cited from earlier work
Wnt [10] = system: Wnt; parameters: method as in PMID 36235141; conditions: T98G glioblastoma multiforme cells; inducer m-wnt3a; cited from earlier work
NF-κB [11] = assay: Luciferase reporter assay, NF-κB, HeLa; type: cell-based; conditions: Homo sapiens; HeLa cells; inducer PMA; dash: not inhibited by more than 40% at 50 µmol/L
Experimental: (§1) Hela cells (or T98G cells) from ATCC were plated in white opaque 384-well plates at a density of 4300 cells/well in 30 µL of growth medium (DMEM with 10% FBS and 1% Pen/Strep). The next day, the medium was aspirated and replaced with DMEM containing 1% FBS. The cells were transfected with respective plasmids using X-tremeGENE HP DNA transfection reagent (Roche). After 24 h of transfection, the test agents were added to the transfected cells, followed 30 min later by an inducing agent: interleukin 6 (IL-6) for Stat3, TGF-β for Smad, m-wnt3a for Wnt and PMA for AP-1, NF-κB, E2F, Myc, ETS, Notch and Hedgehog. No inducer was added for FoXO and pTK. After 4 h or 6 h of induction, the cells were lysed via the addition of the One-Glo luciferase assay system (Promega; Madison, WI). The light output was detected in a GloMax®-Multi+ Detection System with Instinct® Software (Promega E 8051). This luciferase assay determines if the test agent is able to inhibit the activation of cancer-related signaling pathways. In the case of FoxO, the enhanced luciferase activity via the test agent was assessed.

E2F [12] = assay: Luciferase reporter assay, E2F, HeLa; type: cell-based, human
Experimental: as §1

Myc [13] = assay: Luciferase reporter assay, Myc, HeLa; type: cell-based; conditions: Homo sapiens; HeLa cells; inducer PMA; dash: not inhibited by more than 40% at 50 µmol/L
Experimental: as §1

Wnt [14] = assay: Luciferase reporter assay, Wnt, HeLa; type: cell-based; conditions: Homo sapiens; HeLa cells; inducer m-wnt3a; dash: not inhibited by more than 40% at 50 µmol/L
Experimental: as §1

Stat3 [15] = assay: Luciferase reporter assay, Stat3, HeLa; type: cell-based, human; conditions: Homo sapiens; HeLa cells; inducer IL6; dash: not inhibited by more than 40% at 50 µmol/L
Experimental: as §1

[16] = system: panel of transcription factors (cancer-related signaling pathways); assay: Luciferase reporter panel, summary over pathways, HeLa; type: cell-based; conditions: Homo sapiens; HeLa cells; read-out: IC50, span over signaling pathways
Experimental: as §1

Hedgehog [17] = assay: Luciferase reporter assay, Hedgehog, HeLa; type: cell-based, human; conditions: Homo sapiens; HeLa cells; inducer PMA; dash: not inhibited by more than 40% at 50 µmol/L
Experimental: as §1

AP-1 [18] = assay: Luciferase reporter assay, AP-1, HeLa; type: cell-based, human
Experimental: as §1

Notch [19] = assay: Luciferase reporter assay, Notch, HeLa; type: cell-based; conditions: Homo sapiens; HeLa cells; inducer PMA; dash: not inhibited by more than 40% at 50 µmol/L
Experimental: as §1

ETS [20] = assay: Luciferase reporter assay, ETS, HeLa; type: cell-based, human; conditions: Homo sapiens; HeLa cells; inducer PMA; dash: not inhibited by more than 40% at 50 µmol/L
Experimental: as §1

FoxO = assay: Luciferase reporter assay, FoxO, HeLa; type: cell-based; conditions: Homo sapiens; HeLa cells; no inducer; dash: no activity detected; read-out: IC50, FoxO (None)
Experimental: as §1

Smad2/3 [21] = assay: Luciferase reporter assay, Smad2/3, HeLa; type: cell-based, human; conditions: Homo sapiens; HeLa cells; inducer TGF-beta; dash: not inhibited by more than 40% at 50 µmol/L
Experimental: as §1

[22] = HeLa cells, inducer PMA, dash: not inhibited by more than 40% at 50 µmol/L

In the case of C=C(C)[C@H]1CCC(C)=C[C@@H]1c1c(O)cc(O)cc1/C=C/c1ccccc1 [compound 12], the IC50 (Stat3 [1]) is given as 4.9 µM, the IC50 (Smad2/3 [2]) is given as 3.5 µM and the IC50 (Hedgehog [3]) is given as 7 µM. The IC50 (Myc [4]) was 5.7 µM, the IC50 (AP-1 [5]) was 10.2 µM and the IC50 (NF-κB [6]) was 7.7 µM. For the same compound, the IC50 (ETS [7]) was 7.3 µM, the IC50 (E2F [8]) was 4.5 µM and the IC50 (Notch [9]) was under 5 µM. The IC50 (Wnt [10]) was 12.1 µM.

In the case of C=C(C)[C@@H]1CCC(C)=C[C@H]1c1c(O)cc(CCCCC)cc1O [compound 9, cannabidiol, reference compound], the IC50 (NF-κB [11]) is reported as 3 µM, the “IC50, E2F (PMA)” value (E2F [12]; [22]) is reported as “inactive” and the IC50 (E2F [12]; Homo sapiens, HeLa, read-out: IC50, E2F (PMA)) is reported as over 50 µM. For the same compound, the IC50 (Myc [13]) was 3.8 µM, the IC50 (Wnt [14]) was 5.7 µM and the IC50 (Stat3 [15]) was 5.9 µM. The IC50 [16] was 3 to 6.1 µM, the IC50 (Hedgehog [17]) was 6.1 µM and the “IC50, Ap-1 (PMA)” value (AP-1 [18]; [22]) was “inactive”. It also gave an IC50 (AP-1 [18]; Homo sapiens, read-out: IC50, Ap-1 (PMA)) of over 50 µM, an IC50 (Notch [19]) of 4.8 µM and an IC50 (ETS [20]) of 5.5 µM. It also gave an IC50 (FoxO) of over 50 µM and an IC50 (Smad2/3 [21]) of 4.1 µM.

For CC(C)=CCC/C(C)=C/Cc1c(O)cc(O)cc1/C=C/c1ccccc1 [compound 13], the IC50 (Stat3 [1]) is listed as 4.3 µM, the IC50 (Smad2/3 [2]) is listed as 2.2 µM and the IC50 (Hedgehog [3]) is listed as 8.3 µM. The IC50 (Myc [4]) was 1.9 µM, the IC50 (AP-1 [5]) was 4.4 µM and the IC50 (NF-κB [6]) was 4.8 µM. The IC50 (ETS [7]) was 4.7 µM, the IC50 (E2F [8]) was 4.4 µM and the IC50 (Notch [9]) was 2.1 µM. The IC50 (Wnt [10]) was 9.1 µM.
